Common to all, as to assay: Kinase panel profiling at 1 µmol/L (MSA or IMAP), percentage inhibition
Format in all cases: biochemical

For test [1], the target named is panel of 255 wild-type kinases (Homo sapiens, UniProt P06493). The settings on record: read-out: %-inhibition CDC2/CycB1.
For test [2], the target named is panel of 255 wild-type kinases (Homo sapiens, UniProt P19525). The settings on record: read-out: %-inhibition at 1 µmol/L, PKR.
Test [3] deals with panel of 255 wild-type kinases (Homo sapiens, UniProt P45984). Conditions: read-out: %-inhibition at 1 µmol/L, JNK2.
Test [4] has as its target T1, panel of 255 wild-type kinases (Homo sapiens, UniProt P54760).
T1 sequence (P54760 16-987): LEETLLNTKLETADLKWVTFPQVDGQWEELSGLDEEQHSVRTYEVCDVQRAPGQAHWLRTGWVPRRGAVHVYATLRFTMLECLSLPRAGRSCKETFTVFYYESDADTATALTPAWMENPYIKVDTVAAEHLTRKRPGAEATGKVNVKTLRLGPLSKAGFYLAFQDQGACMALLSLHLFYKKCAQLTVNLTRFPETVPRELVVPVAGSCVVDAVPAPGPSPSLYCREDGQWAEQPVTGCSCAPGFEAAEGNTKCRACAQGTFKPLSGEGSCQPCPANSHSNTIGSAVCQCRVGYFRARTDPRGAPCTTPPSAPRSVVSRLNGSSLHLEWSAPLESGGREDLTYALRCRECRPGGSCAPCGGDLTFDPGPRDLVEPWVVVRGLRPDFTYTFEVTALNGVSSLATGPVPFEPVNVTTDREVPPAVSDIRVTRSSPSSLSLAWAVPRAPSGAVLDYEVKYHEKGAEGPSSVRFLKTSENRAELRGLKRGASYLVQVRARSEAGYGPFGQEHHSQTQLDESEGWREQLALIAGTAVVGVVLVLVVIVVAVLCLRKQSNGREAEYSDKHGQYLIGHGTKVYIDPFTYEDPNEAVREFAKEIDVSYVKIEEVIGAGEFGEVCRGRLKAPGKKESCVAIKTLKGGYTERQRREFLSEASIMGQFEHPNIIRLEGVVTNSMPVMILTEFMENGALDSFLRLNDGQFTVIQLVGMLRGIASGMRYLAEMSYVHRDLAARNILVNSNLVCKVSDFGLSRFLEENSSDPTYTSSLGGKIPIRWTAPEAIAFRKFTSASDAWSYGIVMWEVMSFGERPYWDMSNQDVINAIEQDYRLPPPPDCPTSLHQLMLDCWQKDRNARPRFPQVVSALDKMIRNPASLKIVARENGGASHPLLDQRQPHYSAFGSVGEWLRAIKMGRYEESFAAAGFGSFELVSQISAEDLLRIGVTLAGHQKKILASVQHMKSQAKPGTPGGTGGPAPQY
The settings on record: read-out: %-inhibition at 1 µmol/L, EPHB4.

The target in test [5] is T2, panel of 255 wild-type kinases (Homo sapiens, UniProt Q13188).
T2 sequence (Q13188 1-491): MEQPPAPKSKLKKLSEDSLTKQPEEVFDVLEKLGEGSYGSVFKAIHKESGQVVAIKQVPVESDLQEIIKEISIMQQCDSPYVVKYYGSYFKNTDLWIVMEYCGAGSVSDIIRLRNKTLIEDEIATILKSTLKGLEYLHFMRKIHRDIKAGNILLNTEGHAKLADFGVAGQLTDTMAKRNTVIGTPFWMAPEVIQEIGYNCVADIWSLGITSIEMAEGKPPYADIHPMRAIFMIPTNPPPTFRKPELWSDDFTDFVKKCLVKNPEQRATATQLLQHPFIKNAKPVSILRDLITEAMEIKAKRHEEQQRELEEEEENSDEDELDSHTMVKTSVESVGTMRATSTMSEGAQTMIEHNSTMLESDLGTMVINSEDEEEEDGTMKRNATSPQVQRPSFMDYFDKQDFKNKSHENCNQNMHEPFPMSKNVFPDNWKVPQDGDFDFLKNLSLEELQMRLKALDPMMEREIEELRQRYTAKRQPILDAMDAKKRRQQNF
Conditions: read-out: %-inhibition, MST2.

Test [6] addresses T3, panel of 255 wild-type kinases (Homo sapiens, UniProt Q14164).
T3 sequence (Q14164 1-716): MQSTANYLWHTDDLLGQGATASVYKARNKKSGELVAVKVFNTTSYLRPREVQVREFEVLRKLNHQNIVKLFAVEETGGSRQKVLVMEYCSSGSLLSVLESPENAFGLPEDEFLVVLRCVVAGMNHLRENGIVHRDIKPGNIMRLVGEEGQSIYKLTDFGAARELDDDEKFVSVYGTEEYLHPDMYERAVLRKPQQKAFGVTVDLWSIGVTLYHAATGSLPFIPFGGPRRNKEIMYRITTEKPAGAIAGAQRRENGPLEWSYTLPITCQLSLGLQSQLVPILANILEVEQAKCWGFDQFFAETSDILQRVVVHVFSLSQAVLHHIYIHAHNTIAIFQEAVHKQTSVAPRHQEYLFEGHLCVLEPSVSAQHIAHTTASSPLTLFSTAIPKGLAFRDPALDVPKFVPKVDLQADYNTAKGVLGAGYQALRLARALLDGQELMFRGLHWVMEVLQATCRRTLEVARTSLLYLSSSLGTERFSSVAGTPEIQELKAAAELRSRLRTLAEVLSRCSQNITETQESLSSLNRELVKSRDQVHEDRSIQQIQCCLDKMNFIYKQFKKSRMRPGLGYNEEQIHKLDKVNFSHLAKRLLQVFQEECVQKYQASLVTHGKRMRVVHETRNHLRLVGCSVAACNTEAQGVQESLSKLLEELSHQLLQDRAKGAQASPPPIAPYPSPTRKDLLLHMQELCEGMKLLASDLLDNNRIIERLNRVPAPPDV
The settings on record: read-out: %-inhibition at 1 µmol/L, IKKε.

Test [7] addresses panel of 255 wild-type kinases (Homo sapiens, UniProt Q16816). The settings on record: read-out: %-inhibition at 1 µmol/L, PHKG1.
The mark [8] stands for this setting: CDC2/CycB1 kinase assay, 1 µmol/L single concentration.
Where [9] appears, read: kinase PKR, 1 µmol/L single concentration.
[10] abbreviates: kinase JNK2, 1 µmol/L single concentration.
The mark [11] stands for this setting: kinase EPHB4, 1 µmol/L single concentration.
Where [12] appears, read: MST2, 1 µmol/L single concentration.
Where [13] appears, read: kinase IKKε, 1 µmol/L single concentration.
Where [14] appears, read: kinase PHKG1, 1 µmol/L single concentration.

The values that follow come from publication PMC9516332 (Frontiers in Oncology, 2022).

Structures are written as SMILES. Where two headings read alike, the source gives them in different places.

On to `Cn1cc(-c2cc3c(N4CCN(c5ncc([C@@](C)(N)c6ccc(F)cc6)cn5)CC4)ncnn3c2)cn1` [avapritinib], for which the inhibition at 1 µM is 3% in test [1] (setting [8]); 9% in test [2] (setting [9]); 1.1% in test [3] (setting [10]); 34% in test [4] (setting [11]); 0.434% in test [5] (setting [12]); -0.262% in test [6] (setting [13]). Further, the inhibition at 1 µM in test [7] (setting [14]) is -0.381%.
With `C[C@H](Nc1ncnc2nc[nH]c12)c1cc2cccc(Cl)c2c(=O)n1-c1ccccc1` [duvelisib], the inhibition at 1 µM in test [1] (setting [8]) is -0.937%; in test [2] (setting [9]), 2.64%; in test [3] (setting [10]) it was 2%; in test [4] (setting [11]), 3.24%; in test [5] (setting [12]), 4%; in test [6] (setting [13]) it was -0.56%. Moreover, the inhibition at 1 µM in test [7] (setting [14]) was -1.8%.
Regarding `COc1cc2ncnc(Nc3ccc(F)c(Cl)c3)c2cc1NC(=O)/C=C/CN1CCCCC1` [dacomitinib], the inhibition at 1 µM was -6% in test [1] (setting [8]); 3.25% in test [2] (setting [9]); 1.27% in test [3] (setting [10]); 62% in test [4] (setting [11]); 2% in test [5] (setting [12]); -2.11% in test [6] (setting [13]). Further, the inhibition at 1 µM in test [7] (setting [14]) was found to be 25%.
For `CCN1CCN(c2ccc(Nc3cc(N(C)C(=O)Nc4c(Cl)c(OC)cc(OC)c4Cl)ncn3)cc2)CC1` [infigratinib], the inhibition at 1 µM is -9% in test [1] (setting [8]); 76% in test [2] (setting [9]); 2.8% in test [3] (setting [10]); -0.369% in test [4] (setting [11]); -2.14% in test [5] (setting [12]); -6% in test [6] (setting [13]). Moreover, the inhibition at 1 µM in test [7] (setting [14]) stood at 0.355%.
On to `Cn1cnc2c(F)c(Nc3ccc(Br)cc3Cl)c(C(=O)NOCCO)cc21` [selumetinib], for which the inhibition at 1 µM in test [1] (setting [8]) is -11%; in test [2] (setting [9]) it was 1.47%; in test [3] (setting [10]), -2.13%; in test [4] (setting [11]) it was 0.674%; in test [5] (setting [12]) it was -2.14%; in test [6] (setting [13]), -5.67%. Moreover, the inhibition at 1 µM in test [7] (setting [14]) is -0.945%.
`CNC(=O)c1ccc(-c2cnc3ncc(Cc4ccc5ncccc5c4)n3n2)cc1F` [capmatinib]: the inhibition at 1 µM was 2% in test [1]; 7% in test [2]; -0.668% in test [3]; -1.2% in test [4]; -3.3% in test [5]; -5.46% in test [6]. Moreover, the inhibition at 1 µM in test [7] was -2.39%.
`COC(=O)N[C@@H](C)CNc1nccc(-c2cn(C(C)C)nc2-c2cc(Cl)cc(NS(C)(=O)=O)c2F)n1` [encorafenib]: the inhibition at 1 µM in test [1] (setting [8]) was 8%; in test [3] (setting [10]), 61%; in test [4] (setting [11]) it was -0.672%; in test [5] (setting [12]) it was 3%; in test [6] (setting [13]), -3.36%; in test [7] (setting [14]), 3%.
As to `Cc1cc(Nc2ncnc3ccc(NC4=NC(C)(C)CO4)cc23)ccc1Oc1ccn2ncnc2c1` [tucatinib], the inhibition at 1 µM is -7% in test [1] (setting [8]); 3.37% in test [2] (setting [9]); 1.47% in test [3] (setting [10]); -0.489% in test [4] (setting [11]); -1.17% in test [5] (setting [12]); -2.62% in test [6] (setting [13]). In test [7] (setting [14]), the inhibition at 1 µM is -3.62%.
`C=CC(=O)N1CCC([C@@H]2CCNc3c(C(N)=O)c(-c4ccc(Oc5ccccc5)cc4)nn32)CC1` [zanubrutinib]: the inhibition at 1 µM in test [1] (setting [8]) is -7%; in test [2] (setting [9]), -1.41%; in test [3] (setting [10]), -1.18%; in test [4] (setting [11]), -2.82%; in test [5] (setting [12]) it was 1.56%; in test [6] (setting [13]) it was 6%. Moreover, the inhibition at 1 µM in test [7] (setting [14]) was determined as 2.38%.
In the case of `Cn1cnc2c(F)c(Nc3ccc(Br)cc3F)c(C(=O)NOCCO)cc21` [binimetinib], the inhibition at 1 µM was 2.36% in test [1] (setting [8]); -11% in test [2] (setting [9]); -5.47% in test [3] (setting [10]); -0.0401% in test [4] (setting [11]); -1.64% in test [5] (setting [12]); -3% in test [6] (setting [13]). Further, in test [7] (setting [14]), the inhibition at 1 µM was 1.77%.
Take `COc1ccc(CN2C3CC2CN(c2ccc(-c4cc(OCC(C)(C)O)cn5ncc(C#N)c45)cn2)C3)cn1` [selpercatinib]: the inhibition at 1 µM in test [1] (setting [8]) is -4%; in test [2] (setting [9]), 0.94%; in test [3] (setting [10]), -1.07%; in test [4] (setting [11]), 73%; in test [5] (setting [12]), 0.47%; in test [6] (setting [13]), 20%. The inhibition at 1 µM in test [7] (setting [14]) turned out to be 8%.
In the case of `CCN1C(=O)N(c2c(F)c(OC)cc(OC)c2F)Cc2cnc3[nH]c(CN4CCOCC4)cc3c21` [pemigatinib], the inhibition at 1 µM is 10% in test [1] (setting [8]); 85% in test [2] (setting [9]); 1.27% in test [3] (setting [10]); -3% in test [4] (setting [11]); 7% in test [5] (setting [12]); 8.49% in test [6] (setting [13]). In test [7] (setting [14]), the inhibition at 1 µM was 6%.
For the compound `CN1CCN(c2ccc(C(=O)Nc3n[nH]c4ccc(Cc5cc(F)cc(F)c5)cc34)c(NC3CCOCC3)c2)CC1` [entrectinib], the inhibition at 1 µM in test [1] (setting [8]) came out at 3.63%; in test [2] (setting [9]), 3.49%; in test [3] (setting [10]) it was 7%; in test [4] (setting [11]) it was 73%; in test [5] (setting [12]) it was 35%; in test [6] (setting [13]), 7%. Moreover, the inhibition at 1 µM in test [7] (setting [14]) was 54%.
Turning to `CCc1nc(C(N)=O)c(Nc2ccc(N3CCC(N4CCN(C)CC4)CC3)c(OC)c2)nc1NC1CCOCC1` [gilteritinib], the inhibition at 1 µM in test [1] (setting [8]) is 26%; in test [3] (setting [10]), 44%; in test [4] (setting [11]), 74%; in test [5] (setting [12]) it was 14%; in test [6] (setting [13]), 10%; in test [7] (setting [14]), 92%.
